Measurements: paper PMC6097146, “Drug‐Bearing Supramolecular MMP Inhibitor Nanofibers for Inhibition of Metastasis and Growth of Liver Cancer” (Advanced Science, 2018)
Converted amounts (≈) assume the structure as drawn. Where no end group is shown, it is not given here.

Tests used:
MMP-2 = target: T1, MMP-2 (Homo sapiens, UniProt P08253); assay: MMP-2 inhibitor screening assay (fluorescent substrate method); format: biochemical
T1 sequence (P08253 110-660): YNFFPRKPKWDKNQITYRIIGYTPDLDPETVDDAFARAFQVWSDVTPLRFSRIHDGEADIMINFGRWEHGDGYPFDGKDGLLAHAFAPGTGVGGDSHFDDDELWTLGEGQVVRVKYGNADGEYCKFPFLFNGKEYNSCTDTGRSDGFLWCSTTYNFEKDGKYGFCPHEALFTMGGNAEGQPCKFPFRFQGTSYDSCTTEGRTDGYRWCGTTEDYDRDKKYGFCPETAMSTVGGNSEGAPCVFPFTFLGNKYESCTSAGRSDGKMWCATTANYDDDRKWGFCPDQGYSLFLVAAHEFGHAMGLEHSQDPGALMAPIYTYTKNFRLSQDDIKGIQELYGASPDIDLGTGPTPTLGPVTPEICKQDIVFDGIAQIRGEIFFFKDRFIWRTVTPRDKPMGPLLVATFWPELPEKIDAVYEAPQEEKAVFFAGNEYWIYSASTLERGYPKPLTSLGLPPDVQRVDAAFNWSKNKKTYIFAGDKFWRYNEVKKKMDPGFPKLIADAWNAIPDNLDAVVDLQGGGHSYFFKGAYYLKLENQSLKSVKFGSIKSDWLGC
Method: MMP‐2 Inhibitor Screening Assay: The MMP‐2 inhibitory activity of the samples was analyzed using a fluorescent substrate method, as previously described.23 The MMP substrate peptide MOCAC‐Pro‐Leu‐Gly‐Leu‐Dap(Dnp)‐Ala‐Arg‐NH2 was purchased from Sigma. […] The fluorescence intensity was measured at 328 nm for excitation and 393 nm for emission every 15 min for a 2 h period without interrupting the reaction using a fluorescence microplate reader (POLARstar Omega, Germany).

SMMC7721 cells [1] = assay: In vitro migration assay (transwell); format: cell-based; details: SMMC7721 cells treated 24 h with 2.5 µg mL^−1 DOX/well, then 24 h transwell incubation, crystal violet
Method: Microscopy images of b) migration and c) invasion and e,f) quantitative analysis of SMMC7721 cells that passed through the membrane. […] Cells without treatments were used as control.
Then, 500 µL of media were added to the lower chamber as a chemoattractant. […] Cells that got through the membrane and were located on the lower surface were fixed using 4% paraformaldehyde, stained with crystal violet, and quantified with a microplate reader (Leica, Germany).

[2] = tested on: SMMC7721 pulmonary metastasis; assay: SMMC7721 pulmonary metastatic mouse model; format: in vivo; details: SMMC7721 cells injected through the tail vein into nude mice, day 21, compared with saline/control group, n = 6
Method: The antimetastatic effects were evaluated by determining the number of metastatic nodules and the degree of H&E staining in the lung tissues.
(§1) Data are given as the mean ± SD (n = 6).
Then, mice were sacrificed and photographed, and the primary tumors and the lungs were striped, and then washed with cold PBS. […] For pulmonary metastatic assays, SMMC7721 cells were trypsinized, suspended in complete medium at a density of 1 × 10^7 cells mL^−1, and then immediately intravenously injected into the nude mice through the tail vein. Images of metastatic nodules on the lungs were obtained with a camera and nodules were counted; histological sections of lungs were stained with H&E for the histopathological examination.

SMMC7721 tumors = assay: Inhibition of liver tumor growth in mice bearing SMMC7721 tumors; format: in vivo; details: intratumor injection, 5 mg kg^−1 DOX, versus saline and KGFRWR groups
Method: At the end of the experiment, tumors were photographed and weighed.
The body weight and tumor volume were recorded and calculated three times a week for three weeks. The tumor length (L), which is the longest diameter of the tumor, and width (W), which is the diameter in the direction perpendicular to the length, were measured using Vernier calipers, and the tumor volume (V) was counted using the following formula: V = LW ^2/2. Then, mice were sacrificed and photographed, and the primary tumors and the lungs were striped, and then washed with cold PBS. Primary tumors were weighed and photographed. Histological sections of the primary tumors were used for the following three purposes: first, the sections were stained with H&E to detect tumor apoptosis and necrosis; second, TUNEL staining was used to detect DNA fragmentation in the nucleus of late apoptotic cells in the tissue; and third, sections were incubated with an anticaspase‐3 rabbit antibody (1:200 dilution) followed by a horseradish peroxidase‐labeled antirabbit immunoglobulins (Abcam, UK) for color development and then counterstained with hematoxylin.

SMMC7721 cells [3] = assay: MTT cell toxicity assay; format: cell-based; details: 24 h incubation, mean ± SD (n = 6)
Method: as §1
Cell Toxicity Assay: Cytotoxicity in SMMC7221 cells was quantified using an MTT assay. Cells were incubated in Dulbecco's modified Eagle medium (DMEM) medium containing 10% fetal calf serum at 37 °C in an atmosphere of 5% CO2 in air. For the cytotoxicity assay, SMMC7721 cells were precultured in 96‐well cell culture plates at a density of 1.0 × 10^5 cells per well in 100 µL of medium and grown overnight.

[4] = rat, in vivo
Method: The dynamic behavior of the nanofiber was monitored at predetermined intervals after injection by liquid chromatography‐tandem mass spectrometry (LC/MS/MS).
The rats were anaesthetized with ether. A heparinized capillary was then inserted into eyeground veins to obtain 0.3 mL of blood in a plastic centrifuge tube. Plasma samples were collected by centrifugation at 12 000 rpm for 5 min and then stored immediately at −20 °C until analysis. Next, 300 µL of acetonitrile containing an internal standard (clarithromycin, 20 ng mL^−1) were added to the 100 µL plasma samples to precipitate protein, the mixture was centrifuged at 13 000 rpm for 5 min, and 50 µL of supernatant were assayed by LC/MS/MS.

| T1/2 [4] | T max [4] | Compound | IC50 (MMP-2) | migration rate compared with control (SMMC7721 cells [1]) | number of pulmonary metastatic nodules [2] | tumor growth (in words) (SMMC7721 tumors) | IC50 (SMMC7721 cell growth) (SMMC7721 cells [3]) |
| --- | --- | --- | --- | --- | --- | --- | --- |
|  |  | KGFRWR-NH2 [KGFRWR] | 14.2 µM |  |  |  |  |
| 6.90 ± 1.20 h | 0.43 ± 0.16 h | COc1cccc2c1C(=O)c1c(O)c3c(c(O)c1C2=O)C[C@@](O)(C(=O)CO)C[C@@H]3O[C@H]1C[C@H](N)[C@H](O)[C@H](C)O1 [DOX, doxorubicin] |  | 39.4% | distinctly decreased | inhibited tumor growth | 1.888 µg/mL (≈ 3.47 µM) |
